Measurements taken from US20250223626A1, “METHODS OF DIAGNOSING IBS-D AND SELECTION OF IBS-D TREATMENT” (priority 2022, published 2025).
“Also recorded” adds a separate entry of the source.

Tests used:
[1] = rats on HFD, 10 days of treatment, compared to controls on HFD (P=0.07)
Experimental: (§1) Therefore, HFD was used to assess the effects of persistent M. smithii elevation on stool consistency (stool wet weights). Sprague-Dawley rats were placed on a HFD (60% energy from fat [D12492; Research Diets, New Brunswick, NJ]) for 7 weeks. […] Stool collections were performed at baseline, after 7 weeks on HFD, and after the 10-day lovastatin/control treatments. Stool wet weights were determined. Stool and small bowel DNAs were extracted at euthanasia and the absolute abundance of M. smithii was determined by qPCR as described previously.

[2] = test system: Methanobrevibacter smithii; conditions: rats on HFD, gavaged 10 days with 1.5 mg/ml, compared to controls (water)
Experimental: as §1

| SMILES | stool consistency (stool wet weight) [1] | M. smithii absolute load in the small bowel [2] |
| --- | --- | --- |
| CC[C@H](C)C(=O)O[C@H]1C[C@@H](C)C=C2C=C[C@H](C)[C@H](CC[C@@H](O)C[C@@H](O)CC(=O)O)[C@H]21 [lovastatin hydroxyacid] | normalization | – |
| CC[C@H](C)C(=O)O[C@H]1C[C@@H](C)C=C2C=C[C@H](C)[C@H](CC[C@@H]3C[C@@H](O)CC(=O)O3)[C@H]21 [lovastatin lactone] | normalization | decreased; also recorded: reduction |
